Experimental data: the supplement of paper PMC10307832

Assays:
Assay in all cases: relative viability (nuclei count vs DMSO), 5 days (fraction); higher = more cells survive
[1] = compound: CC1=CC(=CC=C1)NC2=NC(=CS2)C3=CC=NC=C3 + Cc1cc(Nc2cc(N3CCN(C)CC3)nc(Sc3ccc(NC(=O)C4CC4)cc3)n2)n[nH]1 [Tozasertib] (partner 0.1 µM)
Summary of the method: (§1)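 Values are medians from duplicate plates. Each reflects relative viability, defined as the nuclei count of treated wells over that of vehicle wells. Lung cancer cell lines in 1536-well plates were pin-tool dosed one day after seeding with one drug alone or with a fixed anchor-drug dose plus five library-drug doses (not always all listed) in √10 steps, then fixed, stained and imaged at 4× after 5 days.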

[2] = compound: CC1=CC(=CC=C1)NC2=NC(=CS2)C3=CC=NC=C3 + COc1cccc2cc(-c3nc([C@H]4CC[C@H](C(=O)O)CC4)n4ncnc(N)c34)[nH]c12 [OSI-027] (partner 0.5 µM)
Summary of the method: as §1

[3] = compound: Cc1ccc(NC(=O)c2ccc(CN3CCN(C)CC3)cc2)cc1Nc1nc(-c2cccnc2)cs1 [Masitinib] + Cc1nc(NC(=O)N2CCC[C@H]2C(N)=O)sc1-c1ccnc(C(C)(C)C(F)(F)F)c1 [Alpelisib] (partner 2 µM)
Summary of the method: as §1

[4] = compound: CC1=CC(=CC=C1)NC2=NC(=CS2)C3=CC=NC=C3 + NC(=O)Nc1cc(-c2cccc(F)c2)sc1C(=O)N[C@H]1CCCNC1 [AZD7762] (partner 0.2 µM)
Summary of the method: as §1

| Cell Line | relative viability ([1]; first compound 0.08 µM) | relative viability ([1]; first compound 0.253 µM) | relative viability ([1]; first compound 0.8 µM) | relative viability ([1]; first compound 2.53 µM) | relative viability ([1]; first compound 8 µM) | relative viability ([2]; first compound 0.08 µM) | relative viability ([2]; first compound 0.253 µM) | relative viability ([2]; first compound 0.8 µM) | relative viability ([2]; first compound 2.53 µM) | relative viability ([2]; first compound 8 µM) | relative viability ([3]; first compound 0.01 µM) | relative viability ([3]; first compound 0.03162 µM) | relative viability ([3]; first compound 0.1 µM) | relative viability ([3]; first compound 0.3162 µM) | relative viability ([3]; first compound 1 µM) | relative viability ([4]; first compound 0.08 µM) | relative viability ([4]; first compound 0.253 µM) | relative viability ([4]; first compound 0.8 µM) | relative viability ([4]; first compound 2.53 µM) | relative viability ([4]; first compound 8 µM) |
| --- | --- | --- | --- | --- | --- | --- | --- | --- | --- | --- | --- | --- | --- | --- | --- | --- | --- | --- | --- | --- |
| NCI-H2170 | 0.729 | 0.71 | 0.663 | 0.793 | 0.628 | 0.733 | 0.646 | 0.583 | 0.537 | 0.651 | 0.912 | 0.688 | 0.902 | 0.784 | 0.801 | 0.776 | 0.829 | 0.706 | 0.749 | 0.521 |
| LXF-289 | 0.168 | 0.182 | 0.188 | 0.189 | 0.13 | 0.794 | 0.786 | 0.753 | 0.729 | 0.838 | 0.886 | 1.01 | 1.03 | 1 | 1.02 | 1.04 | 1.12 | 1.04 | 1.2 | 0.964 |
| NCI-H2405 | 0.65 | 0.727 | 0.541 | 0.691 | 0.602 | 0.564 | 0.636 | 0.531 | 0.702 | 0.671 | 0.838 | 0.945 | 0.896 | 0.737 | 0.802 | 0.675 | 0.716 | 0.667 | – | 0.664 |
| HCC-15 | 0.413 | 0.443 | 0.304 | 0.385 | 0.298 | 0.533 | 0.607 | 0.661 | 0.595 | 0.561 | 0.8 | 0.873 | 0.976 | 0.85 | 0.916 | 1.11 | 1.19 | 1.03 | 1.03 | 1.02 |
| HCC-44 | 0.743 | 0.782 | 0.857 | 0.676 | 0.795 | 0.321 | 0.374 | 0.558 | 0.432 | 0.348 | 0.748 | 0.752 | 0.88 | 0.69 | 0.834 | 0.849 | 0.853 | 0.946 | 0.876 | 0.88 |
| HCC-78 | – | 0.402 | 0.365 | 0.405 | 0.391 | – | 0.371 | 0.392 | 0.308 | 0.435 | 0.342 | 0.188 | 0.438 | 0.306 | 0.332 | 0.674 | 0.409 | 0.613 | 0.449 | 0.658 |
| NCI-H1355 | 0.518 | 0.516 | 0.428 | 0.335 | 0.281 | 0.262 | 0.323 | 0.291 | 0.343 | 0.383 | 0.857 | 0.707 | 0.938 | 0.668 | 0.731 | 0.657 | 0.654 | 0.513 | 0.653 | 0.558 |
| NCI-H838 | 0.229 | 0.227 | 0.242 | 0.234 | 0.225 | 0.318 | 0.357 | 0.37 | 0.386 | 0.348 | 0.912 | 0.865 | 0.992 | 0.769 | 0.957 | 0.812 | 0.924 | 0.85 | 0.928 | 0.829 |
